# Measured values from publication PMC11647907 (Journal of Medicinal Chemistry, 2024).
# Experiments:
# MOLM13 cells [1] = experiment: Cell cycle analysis; format: cell-based; conditions: MOLM13, 24 h
# HL60 cells [2] = experiment: HL60-disseminated leukemia model, survival; format: in vivo, NSG mice
# MOLM13 cells [3] = experiment: Mitochondrial ROS; format: cell-based; conditions: MOLM13, 38 h
# MOLM13 cells [4] = experiment: Mitochondrial membrane potential; format: cell-based; conditions: MOLM13, 10 nM, 48 h, vs DMSO group
# HL60 cells [5] = experiment: Growth inhibition assay; format: cell-based
# [6] = test system: SDHB and NDUFA12 in MOLM13 cells; experiment: Western blotting of respiratory chain proteins, MOLM13; format: cell-based; conditions: 36 h
# HL60 cells [7] = experiment: Cell cycle analysis; format: cell-based; conditions: 24 h
# MOLM13 cells [8] = experiment: MOLM13-disseminated leukemia model, survival; format: in vivo, NSG mice; conditions: 10 mg/kg, p.o, qd, 18 days
# HL60 cells [9] = experiment: Mitochondrial membrane potential; format: cell-based; conditions: HL60, 10 nM, 48 h, vs DMSO group
# PK study, oral 50 mg/kg = format: in vivo, ICR mice
# ClpP [10] = target: T1, ClpP (Homo sapiens, UniProt Q16740); experiment: In vitro enzyme assay: ClpP peptidase activity with AC-WLA-AMC; format: biochemical; conditions: for EC50: EC50 (ClpP proteolytic activity), mean ± SD, n = 3
# ClpP [11] = target: T1, ClpP; experiment: Biolayer interferometry; format: binding
# HL60 cells [12] = experiment: Mitochondrial ROS; format: cell-based; conditions: HL60, 5 nM, 38 h, vs DMSO group
# [13] = Liver microsomal stability, rat; format: in vitro ADME; conditions: rat liver microsomes
# ClpP in MOLM13 cells = ClpP in MOLM13 cells (Homo sapiens, UniProt Q16740); experiment: Cellular thermal shift assay; format: cell-based; conditions: 10 μM, 6 h, vs control group
# ClpP in HL60 cells = ClpP in HL60 cells (Homo sapiens, UniProt Q16740); experiment: Cellular thermal shift assay; format: cell-based; conditions: 10 μM, 6 h, vs control group
# [14] = Liver microsomal stability, human; format: in vitro ADME; conditions: human liver microsomes
# [15] = test system: SDHB and NDUFA12 in HL60 cells; experiment: Western blotting of respiratory chain proteins, HL60; format: cell-based; conditions: 36 h
# [16] = Liver microsomal stability, mice; format: in vitro ADME
# [17] = female, ICR, mouse, plasma, po, 50 mg/kg
# T1 sequence (Q16740 57-277): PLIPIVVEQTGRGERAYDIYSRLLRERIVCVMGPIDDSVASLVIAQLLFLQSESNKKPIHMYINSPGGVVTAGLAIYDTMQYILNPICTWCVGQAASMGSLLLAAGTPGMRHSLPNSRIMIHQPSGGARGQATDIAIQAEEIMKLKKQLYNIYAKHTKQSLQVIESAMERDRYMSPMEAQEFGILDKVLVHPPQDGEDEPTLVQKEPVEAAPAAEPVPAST
# ClpP in HL60 cells, sequence (Q16740 57-277): as above
# ClpP in MOLM13 cells, sequence (Q16740 57-277): as above
structure (smiles),measurement,setting,value
"C[C@@H]1CC2=C(CN1Cc1cccc(C#N)c1)C(=O)N(Cc1ccc(Br)cc1)C1=NCCN12 [CLPP-1071, (R)-3-((4-(4-Bromobenzyl)-8-methyl-5-oxo-1,2,4,5,8,9-hexahydroimidazo[1,2-a]pyrido[3,4-e]pyrimidin-7(6H)-yl)methyl)benzonitrile]",percentage of cells arrested in G1,MOLM13 cells [1]; higher dose (dose not given),73%
same,percentage of cells arrested in G1,MOLM13 cells [1]; lower dose (dose not given),65%
same,survival of female NSG mice,"HL60 cells [2]; HL60 model, 5 and 10 mg/kg, p.o, qd, 19 days",dose-dependently extended the survival
same,survival periods in mice,"HL60 cells [2]; disseminated model, 5 mg/kg, stronger effects compared to 10 mg/kg ONC212",significantly prolonged survival periods
same,ROS levels,MOLM13 cells [3],significant increase in the ROS levels
same,mitochondrial membrane potential (MMP),MOLM13 cells [4],significantly decreased MMP
same,IC50,"HL60 cells [5]; read-out: HL60 IC50, HL60 cells, 72 h, mean ± SD, n = 3, listed as 52a",0.00461 ± 0.00021 µM
same,"inhibition of proliferation of HL60 cells, fold stronger than ONC201",HL60 cells [5]; vs ONC201,169.2 fold
same,SDHB and NDUFA12 protein levels,"[6]; MOLM13, 1 nM",decreased
same,SDHB and NDUFA12 protein levels,"[6]; MOLM13, 10 nM",mostly disappeared
same,percentage of cells arrested in G1,"HL60 cells [7]; HL60, 10 nM",50%
same,percentage of cells arrested in G1,"HL60 cells [7]; HL60, 100 nM",60%
same,survival of female NSG mice,MOLM13 cells [8],extended the survival
same,mitochondrial membrane potential (MMP),HL60 cells [9],significantly decreased MMP
same,"AUC0–∞, times higher than that of ONC212","PK study, oral 50 mg/kg; PO 50 mg/kg, mice",approximately 1.5 times
same,AUC(0-inf),"PK study, oral 50 mg/kg; [17]",9.84 ± 0.99 µg·h/mL
same,AUC(0-t),"PK study, oral 50 mg/kg; [17]",9.01 ± 1.32 µg·h/mL
same,Cmax,"PK study, oral 50 mg/kg; [17]",3.42 ± 0.57 µg/mL
same,MRT,"PK study, oral 50 mg/kg; [17]",157 ± 24.6 min
same,Tmax,"PK study, oral 50 mg/kg; [17]",30 ± 25.8 min
same,half-life,"PK study, oral 50 mg/kg; [17]",87 ± 19.8 min
same,EC50,ClpP [10],0.0235 µM
same,"ClpP agonistic activity, fold stronger than ONC201",ClpP [10]; vs ONC201,107.1 fold
same,Kd,ClpP [11],0.0269 µM
same,ROS accumulation,HL60 cells [12],pronounced elevation in ROS accumulation
same,Clapp,[13],54.4 L/h/kg
same,Clh,[13],3.12 L/h/kg
same,Eh (%),[13],94.3%
same,half-life,[13],6.89 min
same,thermal stability of ClpP (CETSA),ClpP in MOLM13 cells,effectively stabilized ClpP protein at higher temperatures
same,thermal stability of ClpP (CETSA),ClpP in HL60 cells,effectively stabilized ClpP protein at higher temperatures
same,Clapp,[14],17.8 L/h/kg
same,Clh,[14],1.16 L/h/kg
same,Eh (%),[14],93.5%
same,half-life,[14],13.7 min
same,SDHB and NDUFA12 protein levels,"[15]; HL60, 1 nM",decreased
same,SDHB and NDUFA12 protein levels,"[15]; HL60, 10 nM",mostly disappeared
CC(c1ccccc1)N1CCC2=C(C1)C(=O)N(Cc1ccc(C(F)(F)F)cc1)C1=NCCN12 (stereo not shown) [compound 2],EC50,ClpP [10],0.193 ± 0.0189 µM
CC(c1ccc(C(F)(F)F)cc1)N1C(=O)C2=C(CCN(Cc3ccccc3)C2)N2CCN=C21 (stereo not shown) [compound 3],EC50,ClpP [10],2.659 ± 0.0117 µM
CC1CN(Cc2ccccc2)CC2=C1N1CCN=C1N(Cc1ccc(C(F)(F)F)cc1)C2=O (stereo not shown) [compound 4],EC50,ClpP [10],1.41 ± 0.0205 µM
CC1(C)CN(Cc2ccccc2)CC2=C1N1CCN=C1N(Cc1ccc(C(F)(F)F)cc1)C2=O [compound 5],EC50,ClpP [10],1.65 ± 0.0845 µM
"C[C@]12CC[C@H]3[C@@H](CCC4=CC(=O)CC[C@@]43C)[C@@H]1CC[C@@H]2O [testosterone, reference compound]",Clapp,[13],518 L/h/kg
same,Clh,[13],3.29 L/h/kg
same,Eh (%),[13],99.4%
same,half-life,[13],0.723 min
same,Clapp,[14],28 L/h/kg
same,Clh,[14],1.19 L/h/kg
same,Eh (%),[14],95.8%
same,Clapp,[16]; mice liver microsomes,518 L/h/kg
same,Clh,[16]; mice liver microsomes,3.29 L/h/kg
same,Eh (%),[16]; mice liver microsomes,99.4%
same,half-life,"[16]; mouse, liver microsomes",0.723 min
